US20010054579A1, “METHOD OF SEPARATING DIFFERENT CHEMICALS IN A SAMPLE” (priority 1997, published 2001)

Tests used:
Format in all cases: physicochemical
[1] = Reversed-phase liquid chromatography retention factor (log k) on pentyl bonded phase; settings: C5 column; for log k in 80% CH3CN, C5: aqueous 80% acetonitrile at 40° C.
Excerpt: (§1) The inertness and the chemical stability of the synthesized hexyl-phenyl bonded silica gel were studied by looking at the retention factors and peak shapes of pyridine, benzoic acid, 8-hydroxyquinoline, and naphthalene disclosed in T. Hanai, Encyclopedia of Analytical Science (1995), Academic Press, London, p. […] which is hereby incorporated herein by reference. The retention factor, in terms of measured parameters, is “k=(tR−tO)/tO”: where tR is retention time of the measured peak; and to is retention time of non-retained component.
(§2) The retention capacities of alkyl-phenyl bonded silica gels were compared from the retention factors for alkylbenzenes and polycyclic aromatic hydrocarbons (PAH).
(§3) […] The log k values were used for the analysis of hydrophobicity of bonded phases using van der Waals volumes of analytes as the standard.
(§4) The liquid chromatograph was a model HP1090 from Hewlett-Packard (Palo Alto, Calif. USA), and the chemically-bonded silica gel columns, —C18, —C8 and —C5, —C6Ph, —C3Ph, 15 cm×4.6 mm I.D., were from Phenomenex Inc. (Torrance, Calif. USA). Chemicals used were from Aldrich and ChemService. HPLC grade acetonitrile and water were from Fisher Scientific (Tustin, Calif. USA).

[2] = Reversed-phase liquid chromatography retention factor (log k) on octyl bonded phase; settings: C8 column; for log k in 80% CH3CN, C8: aqueous 80% acetonitrile at 40° C.
Excerpt: as §1, §2, §3, §4

[3] = Reversed-phase liquid chromatography retention factor (log k) on octadecyl bonded phase; settings: C18 column; for log k in 80% CH3CN, C18: aqueous 80% acetonitrile at 40° C.
Excerpt: as §1, §2, §3, §4

[4] = Reversed-phase liquid chromatography retention factor (log k) on propyl-phenyl bonded phase; settings: C3Ph column; for log k in 80% CH3CN, C3Ph: aqueous 80% acetonitrile at 40° C.
Excerpt: as §1, §2, §3, §4

[5] = Reversed-phase liquid chromatography retention factor (log k) on hexyl-phenyl bonded phase; settings: C6Ph column; for log k in 80% CH3CN, C6Ph: aqueous 80% acetonitrile at 40° C.
Excerpt: as §1, §2, §3, §4

CCCCCCCCCc1ccccc1 [Nonylbenzene]
log k in 70% CH3CN, C5 [1]: 1.271 | log k in 80% CH3CN, C5 [1]: 1.022 | log k in 70% CH3CN, C8 [2]: 1.457 | log k in 80% CH3CN, C8 [2]: 1.193 | log k in 80% CH3CN, C18 [3]: 1.528 | log k in 70% CH3CN, C3Ph [4]: 1.046 | log k in 80% CH3CN, C3Ph [4]: 0.668 | log k in 70% CH3CN, C6Ph [5]: 1.204 | log k in 80% CH3CN, C6Ph [5]: 0.849

C1=Cc2cccc3cccc1c23 [Acenaphthylene]
log k in 70% CH3CN, C5 [1]: 0.450 | log k in 70% CH3CN, C8 [2]: 0.540 | log k in 70% CH3CN, C18 [3]: 0.663 | log k in 70% CH3CN, C3Ph [4]: 0.364 | log k in 70% CH3CN, C6Ph [5]: 0.521

CCCCc1ccccc1 [Butylbenzene]
log k in 70% CH3CN, C5 [1]: 0.653 | log k in 80% CH3CN, C5 [1]: 0.462 | log k in 70% CH3CN, C8 [2]: 0.776 | log k in 80% CH3CN, C8 [2]: 0.561 | log k in 70% CH3CN, C18 [3]: 0.963 | log k in 80% CH3CN, C18 [3]: 0.702 | log k in 70% CH3CN, C3Ph [4]: 0.548 | log k in 80% CH3CN, C3Ph [4]: 0.274 | log k in 70% CH3CN, C6Ph [5]: 0.648 | log k in 80% CH3CN, C6Ph [5]: 0.391

CCCCCCc1ccccc1 [Hexylbenzene]
log k in 70% CH3CN, C5 [1]: 0.894 | log k in 80% CH3CN, C5 [1]: 0.679 | log k in 70% CH3CN, C8 [2]: 1.043 | log k in 80% CH3CN, C8 [2]: 0.806 | log k in 70% CH3CN, C18 [3]: 1.310 | log k in 80% CH3CN, C18 [3]: 1.021 | log k in 70% CH3CN, C3Ph [4]: 0.747 | log k in 80% CH3CN, C3Ph [4]: 0.430 | log k in 70% CH3CN, C6Ph [5]: 0.871 | log k in 80% CH3CN, C6Ph [5]: 0.572

CCc1ccccc1 [Ethylbenzene]
log k in 70% CH3CN, C5 [1]: 0.417 | log k in 80% CH3CN, C5 [1]: 0.258 | log k in 70% CH3CN, C8 [2]: 0.513 | log k in 80% CH3CN, C8 [2]: 0.324 | log k in 70% CH3CN, C18 [3]: 0.628 | log k in 80% CH3CN, C18 [3]: 0.394 | log k in 70% CH3CN, C3Ph [4]: 0.348 | log k in 80% CH3CN, C3Ph [4]: 0.121 | log k in 70% CH3CN, C6Ph [5]: 0.428 | log k in 80% CH3CN, C6Ph [5]: 0.215

c1ccc2cc3c(cc2c1)-c1cccc2cccc-3c12 [Benzo(k)fluoranthene]
log k in 70% CH3CN, C5 [1]: 0.741 | log k in 70% CH3CN, C8 [2]: 0.959 | log k in 70% CH3CN, C18 [3]: 1.347 | log k in 70% CH3CN, C3Ph [4]: 0.726 | log k in 70% CH3CN, C6Ph [5]: 0.982
